In US5863937A, “Pharmaceutical compositions” (BTG International Limited, priority 1993, dated 1999):
Values after ≈ are worked out from the molar mass of the structure shown.

Assays:
Assay in all cases: MIC, broth serial dilution in liquid YNB medium
C. albicans ATTC 26278 = assay type: cell-based, Candida albicans; settings: 30° C., 24 hours; for minimum inhibiting concentration (MIC), C. albicans ATTC 26278: YNB-Difco medium, 200 μg/ml sodium glutamate, 10^5 cells/ml; for minimum inhibiting concentration (MIC) against Candida albicans ATCC 26278: liquid YNB medium, monosodium glutamate 200 μg/ml
Protocol: The antifungal activity of the compounds has been determined by the serial dilution method in a liquid YNB (Yeast Nitrogen Base) medium containing monosodium glutamate at a concentration of 200 μg/ml, with a temperature of 30° C. and an incubation time of 24 hours.
(§1) The minimum inhibiting concentrations (MIC) in mg/ml were determined for the compounds of Examples 1, 2, 7, 8, 12 and 13 against various Candida sp. using the broth serial dilution method of Milewski et al., Drugs Exp. Clin. Res., 1988, 14, 461. A liquid Yeast Nitrogen Base (YNB)-Difco medium containing 200 μg/ml sodium glutamate was used with a content of 10^5 cells/ml at a temperature of 30° C. and with an incubation time of 24 hours.

C. glabrata = assay type: cell-based, Candida glabrata; settings: YNB-Difco medium, 200 μg/ml sodium glutamate, 10^5 cells/ml, 30° C., 24 hours
Protocol: as §1

C. albicans 2043 = assay type: cell-based, Candida albicans; settings: YNB-Difco medium, 200 μg/ml sodium glutamate, 10^5 cells/ml, 30° C., 24 hours
Protocol: as §1

C. krusei = assay type: cell-based, Candida krusei; settings: YNB-Difco medium, 200 μg/ml sodium glutamate, 10^5 cells/ml, 30° C., 24 hours
Protocol: as §1

C. famata 1940 = assay type: cell-based, Candida famata; settings: YNB-Difco medium, 200 μg/ml sodium glutamate, 10^5 cells/ml, 30° C., 24 hours
Protocol: as §1

[1] = listed as N^2 -L-norvalyl-N^3-trans-2,3-epoxysuccinamoyl-L-2,3-diaminopropanoic acid in th

Row | Compound | minimum inhibiting concentration (MIC), C. albicans ATTC 26278 (C. albicans ATTC 26278) [µg/mL] | minimum inhibiting concentration (MIC) against Candida albicans ATCC 26278 (C. albicans ATTC 26278) [µg/mL] | minimum inhibiting concentration (MIC), C. glabrata (C. glabrata) [µg/mL] | minimum inhibiting concentration (MIC), C. albicans 2043 (C. albicans 2043) [µg/mL] | minimum inhibiting concentration (MIC), C. krusei (C. krusei) [µg/mL] | minimum inhibiting concentration (MIC), C. famata 1940 (C. famata 1940) [µg/mL] | minimum inhibiting concentration (MIC) against Candida albicans ATCC 26278 (C. albicans ATTC 26278; [1]) [µg/mL]
1 | C[C@H](N)C(=O)N[C@@H](CNC(=O)[C@@H]1O[C@H]1C(N)=O)C(=O)O (racemic) [Ala--DL--EADP, N^2 -L-alanyl-N^3 -DL-trans-2,3-epoxysuccinamoyl-L-2,3-diaminopropanoic acid, reference compound] | 1200 (≈ 4160 µM) | 1.2 (≈ 4.16 µM) | 1500 (≈ 5200 µM) | 1000 (≈ 3470 µM) | – | – | –
2 | CCC[C@H](NC(=O)[C@@H](N)CNC(=O)[C@@H]1O[C@H]1C(N)=O)C(=O)O (racemic) [DL--EADP--Nva, N^3 -DL-trans-2,3-Epoxysuccinamoyl-L-2,3-diaminopropionyl-L-norvaline] | 500 (≈ 1580 µM) | – | 1250 (≈ 3950 µM) | 750 (≈ 2370 µM) | 1000 (≈ 3160 µM) | 750 (≈ 2370 µM) | –
3 | CCC[C@H](NC(=O)[C@@H](N)CCCCN)C(=O)N[C@@H](CNC(=O)[C@@H]1O[C@H]1C(N)=O)C(=O)O (racemic) [Lys--Nva--DL--EADP, N^2 -L-Lysyl-L-norvalyl-N^3 -DL-trans-2,3-epoxysuccinamoyl-L-2,3-diaminopropanoic acid] | 500 (≈ 1120 µM) | – | 750 (≈ 1690 µM) | 500 (≈ 1120 µM) | 1500 (≈ 3370 µM) | 1000 (≈ 2250 µM) | –
4 | CCC[C@H](N)C(=O)N[C@@H](CNC(=O)[C@@H]1O[C@H]1C(N)=O)C(=O)O (racemic) [Nva--DL--EADP, N^2 -L-Norvalyl-N^3 -DL-trans-2,3-epoxysuccinamoyl-L-2,3-diaminopropanoic acid] | 250 (≈ 790 µM) | – | 750 (≈ 2370 µM) | 250 (≈ 790 µM) | 350 (≈ 1110 µM) | 500 (≈ 1580 µM) | 0.25 (≈ 0.79 µM)
5 | CCC[C@H](NC(=O)[C@@H](N)CNC(=O)[C@@H]1O[C@H]1C(N)=O)C(=O)O (relative stereo) [EADP--Nva, N^3 -D-trans-2,3-Epoxysuccinamoyl-L-2,3-diaminopropionyl-L-norvaline] | 400 (≈ 1260 µM) | – | 1000 (≈ 3160 µM) | 500 (≈ 1580 µM) | 800 (≈ 2530 µM) | 500 (≈ 1580 µM) | –
6 | CCC[C@H](NC(=O)[C@@H](N)CCCCN)C(=O)N[C@@H](CNC(=O)[C@@H]1O[C@H]1C(N)=O)C(=O)O (relative stereo) [Lys--Nva--EADP, N^2 -L-Lysyl-L-norvalyl-N^3 -D-trans-2,3-epoxysuccinamoyl-L-2,3-diaminopropanoic acid] | 200 (≈ 450 µM) | – | 500 (≈ 1120 µM) | 250 (≈ 562 µM) | 750 (≈ 1690 µM) | 500 (≈ 1120 µM) | –
7 | CCC[C@H](N)C(=O)N[C@@H](CNC(=O)[C@@H]1O[C@H]1C(N)=O)C(=O)O (relative stereo) [Nva--EADP, N^2 -L-Norvalyl-N^3 -D-trans-2,3-epoxysuccinamoyl-L-2,3-diaminopropanoic acid] | 150 (≈ 474 µM) | – | 500 (≈ 1580 µM) | 100 (≈ 316 µM) | 350 (≈ 1110 µM) | 350 (≈ 1110 µM) | 0.15 (≈ 0.474 µM)
